Test results taken from patent publication US20260207623A1, “USE OF ESTETROL IN HEPATICALLY IMPAIRED PATIENTS” (ESTETRA SRL, priority 2022, published 2026).

Tests used:
Type in all cases: in vivo, human
post-menopausal women [1] = experiment: Example 2: adverse events (AEs, TEAEs) per treatment group
Text: This is confirmed by the following statistical analysis. Using a Poisson regression model with a random effect for the patient and treatment group as a covariate to model the count of TEAEs in the different treatment groups, it can be shown that there is no statistical difference between the treatment groups (p value of 0.099). Second, a chi-square test was used to assess if the prevalence of patients reporting TEAEs in each treatment group was similar. No statistical difference was found between the treatment groups (p value of 0.575).

post-menopausal women [2] = experiment: Example 2 dose-finding study: weekly frequency of moderate to severe VMS (absolute and relative change, responders); conditions: for Weekly frequency of moderate to severe VMS, relative change (% from baseline), Mean: section B analysis
Text: Enrolment was approximately 18 months. Individual subject participation was up to 27 weeks: up to 6 weeks pre-screening and washout, up to 4 weeks screening and run-in period, up to 91 days (13 weeks) of E4 monohydrate or placebo treatment followed by 2 weeks (14 days) of progestin therapy and a Follow up visit 1 week after completion of progestin therapy in non-hysterectomied subjects only.
To define the minimum effective dose (MED) of the oral dose of E4 by evaluating changes in frequency and in severity of moderate to severe vasomotor symptoms (VMS).
This was a prospective, multicentre, randomised, placebo-controlled, double-blinded, dose-finding study.
Eligible subjects were hysterectomied and non-hysterectomied post-menopausal women aged 40 to 65 years, inclusive, presenting at least 7 moderate to severe hot flushes/day or at least 50 moderate to severe hot flushes/week.
All treatments (Estetrol, hereinafter E4 as monohydrate, [2.5 mg, 5 mg, 10 mg, 15 mg] capsule) were administered once daily (QD) per os for at least 12 consecutive weeks until the last biological assessments (Day 91 maximum) had been performed.
In order to analyse the data recorded in this study, treatment groups have been compared using an ANCOVA (analysis of covariance) with respect to the change in weekly frequency of moderate to severe VMS from baseline to weeks 4 and 12. The ANCOVA model includes treatment (“trt1”) and study centre (“SITEPOOL”) as a fixed effect and baseline (“base”) as a covariate.
VMS frequency was also studied by grouping patients according to their degree of response.

post-menopausal women [3] = experiment: Example 2: patients leaving the study
Text: 3. Patients Leaving the Study

## C[C@]12CC[C@@H]3c4ccc(O)cc4CC[C@H]3[C@@H]1[C@@H](O)[C@@H](O)[C@@H]2O [E4 monohydrate, estetrol monohydrate]
post-menopausal women [1]; 2.5 mg daily
  Count of Treatment Emergent AEs (TEAEs): 61
  Percentage of patients with TEAE leading to Study Discontinuation: 1.9
  Percentage of patients with severe TEAE: 7.7
post-menopausal women [1]; 5 mg daily
  Count of Treatment Emergent AEs (TEAEs): 63
  Percentage of patients with TEAE leading to Study Discontinuation: 6.4
  Percentage of patients with severe TEAE: 10.6
post-menopausal women [1]; 10 mg daily
  Count of Treatment Emergent AEs (TEAEs): 95
  Percentage of patients with TEAE leading to Study Discontinuation: 5.6
  Percentage of patients with severe TEAE: 7.4
post-menopausal women [1]; 10 mg group
  average AEs per patient among patients who had AEs: 3.2 AEs per patient
post-menopausal women [1]; 15 mg daily
  Count of Treatment Emergent AEs (TEAEs): 82
  Percentage of patients with TEAE leading to Study Discontinuation: 4.1
  Percentage of patients with severe TEAE: 6.1
post-menopausal women [1]; 15 mg group
  average AEs per patient among patients who had AEs: 2.6 AEs
post-menopausal women [2]; 2.5 mg QD, week 0
  Mean change from baseline in weekly frequency of moderate to severe VMS: 0.00
  Mean relative change (% from baseline) in weekly frequency of moderate to severe VMS: 0%
post-menopausal women [2]; 2.5 mg QD, week 1
  Mean relative change (% from baseline) in weekly frequency of moderate to severe VMS: −23%
post-menopausal women [2]; 2.5 mg QD, week 2
  Mean relative change (% from baseline) in weekly frequency of moderate to severe VMS: −34%
post-menopausal women [2]; 2.5 mg QD, week 3
  Mean relative change (% from baseline) in weekly frequency of moderate to severe VMS: −44%
post-menopausal women [2]; 2.5 mg QD, week 4
  Mean relative change (% from baseline) in weekly frequency of moderate to severe VMS: −49%
post-menopausal women [2]; 2.5 mg QD, week 5
  Mean relative change (% from baseline) in weekly frequency of moderate to severe VMS: −50%
post-menopausal women [2]; 2.5 mg QD, week 6
  Mean relative change (% from baseline) in weekly frequency of moderate to severe VMS: −54%
post-menopausal women [2]; 2.5 mg QD, week 7
  Mean relative change (% from baseline) in weekly frequency of moderate to severe VMS: −57%
post-menopausal women [2]; 2.5 mg QD, week 8
  Mean relative change (% from baseline) in weekly frequency of moderate to severe VMS: −58%
post-menopausal women [2]; 2.5 mg QD, week 9
  Mean relative change (% from baseline) in weekly frequency of moderate to severe VMS: −61%
post-menopausal women [2]; 2.5 mg QD, week 10
  Mean relative change (% from baseline) in weekly frequency of moderate to severe VMS: −61%
post-menopausal women [2]; 2.5 mg QD, week 11
  Mean relative change (% from baseline) in weekly frequency of moderate to severe VMS: −60%
post-menopausal women [2]; 2.5 mg QD, week 12
  Mean relative change (% from baseline) in weekly frequency of moderate to severe VMS: −61%
post-menopausal women [2]; 5 mg QD, week 0
  Mean change from baseline in weekly frequency of moderate to severe VMS: 0.00
  Mean relative change (% from baseline) in weekly frequency of moderate to severe VMS: 0%
post-menopausal women [2]; 5 mg QD, week 1
  Mean relative change (% from baseline) in weekly frequency of moderate to severe VMS: −23%
post-menopausal women [2]; 5 mg QD, week 2
  Mean relative change (% from baseline) in weekly frequency of moderate to severe VMS: −33%
post-menopausal women [2]; 5 mg QD, week 3
  Mean relative change (% from baseline) in weekly frequency of moderate to severe VMS: −38%
post-menopausal women [2]; 5 mg QD, week 4
  Mean relative change (% from baseline) in weekly frequency of moderate to severe VMS: −43%
post-menopausal women [2]; 5 mg QD, week 5
  Mean relative change (% from baseline) in weekly frequency of moderate to severe VMS: −47%
post-menopausal women [2]; 5 mg QD, week 6
  Mean relative change (% from baseline) in weekly frequency of moderate to severe VMS: −57%
post-menopausal women [2]; 5 mg QD, week 7
  Mean relative change (% from baseline) in weekly frequency of moderate to severe VMS: −57%
post-menopausal women [2]; 5 mg QD, week 8
  Mean relative change (% from baseline) in weekly frequency of moderate to severe VMS: −57%
post-menopausal women [2]; 5 mg QD, week 9
  Mean relative change (% from baseline) in weekly frequency of moderate to severe VMS: −59%
post-menopausal women [2]; 5 mg QD, week 10
  Mean relative change (% from baseline) in weekly frequency of moderate to severe VMS: −60%
post-menopausal women [2]; 5 mg QD, week 11
  Mean relative change (% from baseline) in weekly frequency of moderate to severe VMS: −63%
post-menopausal women [2]; 5 mg QD, week 12
  Mean relative change (% from baseline) in weekly frequency of moderate to severe VMS: −62%
post-menopausal women [2]; 10 mg QD, week 1
  Mean relative change (% from baseline) in weekly frequency of moderate to severe VMS: −21%
post-menopausal women [2]; 10 mg QD, week 2
  Mean relative change (% from baseline) in weekly frequency of moderate to severe VMS: −37%
post-menopausal women [2]; 10 mg QD, week 3
  Mean relative change (% from baseline) in weekly frequency of moderate to severe VMS: −48%
post-menopausal women [2]; 10 mg QD, week 4
  Mean relative change (% from baseline) in weekly frequency of moderate to severe VMS: −55%
post-menopausal women [2]; 10 mg QD, week 5
  Mean relative change (% from baseline) in weekly frequency of moderate to severe VMS: −60%
post-menopausal women [2]; 10 mg QD, week 6
  Mean relative change (% from baseline) in weekly frequency of moderate to severe VMS: −65%
post-menopausal women [2]; 10 mg QD, week 10
  Mean relative change (% from baseline) in weekly frequency of moderate to severe VMS: −70%
post-menopausal women [2]; 10 mg QD, week 11
  Mean relative change (% from baseline) in weekly frequency of moderate to severe VMS: −70%
post-menopausal women [2]; 10 mg QD, week 12
  Mean relative change (% from baseline) in weekly frequency of moderate to severe VMS: −72%
post-menopausal women [2]; 10 mg daily, week 0
  Weekly frequency of moderate to severe VMS, relative change (% from baseline), Mean: 0%
post-menopausal women [2]; 10 mg daily, week 1
  Weekly frequency of moderate to severe VMS, relative change (% from baseline), Mean: −21%
post-menopausal women [2]; 10 mg daily, week 2
  Weekly frequency of moderate to severe VMS, relative change (% from baseline), Mean: −37%
post-menopausal women [2]; 10 mg daily, week 3
  Weekly frequency of moderate to severe VMS, relative change (% from baseline), Mean: −48%
post-menopausal women [2]; 10 mg daily, week 4
  Weekly frequency of moderate to severe VMS, relative change (% from baseline), Mean: −55%
post-menopausal women [2]; 10 mg daily, week 5
  Weekly frequency of moderate to severe VMS, relative change (% from baseline), Mean: −60%
post-menopausal women [2]; 10 mg daily, week 6
  Weekly frequency of moderate to severe VMS, relative change (% from baseline), Mean: −65%
post-menopausal women [2]; 10 mg daily, week 7
  Weekly frequency of moderate to severe VMS, relative change (% from baseline), Mean: −66%
post-menopausal women [2]; 10 mg daily, week 8
  Weekly frequency of moderate to severe VMS, relative change (% from baseline), Mean: −68%
post-menopausal women [2]; 10 mg daily, week 9
  Weekly frequency of moderate to severe VMS, relative change (% from baseline), Mean: −69%
post-menopausal women [2]; 10 mg daily, week 10
  Weekly frequency of moderate to severe VMS, relative change (% from baseline), Mean: −70%
post-menopausal women [2]; 10 mg daily, week 11
  Weekly frequency of moderate to severe VMS, relative change (% from baseline), Mean: −70%
post-menopausal women [2]; 10 mg daily, week 12
  Weekly frequency of moderate to severe VMS, relative change (% from baseline), Mean: −72%
post-menopausal women [2]; 15 mg QD, week 2
  Mean relative change (% from baseline) in weekly frequency of moderate to severe VMS: −46%
post-menopausal women [2]; 15 mg QD, week 3
  Mean relative change (% from baseline) in weekly frequency of moderate to severe VMS: −57%
post-menopausal women [2]; 15 mg QD, week 4
  Mean relative change (% from baseline) in weekly frequency of moderate to severe VMS: −67%
post-menopausal women [2]; 15 mg QD, week 8
  Mean relative change (% from baseline) in weekly frequency of moderate to severe VMS: −79%
post-menopausal women [2]; 15 mg QD, week 10
  Mean relative change (% from baseline) in weekly frequency of moderate to severe VMS: −80%
post-menopausal women [2]; 15 mg QD, week 11
  Mean relative change (% from baseline) in weekly frequency of moderate to severe VMS: −82%
post-menopausal women [2]; 15 mg QD, week 12
  Mean relative change (% from baseline) in weekly frequency of moderate to severe VMS: −84%
post-menopausal women [2]; 15 mg daily, week 0
  Weekly frequency of moderate to severe VMS, relative change (% from baseline), Mean: 0%
post-menopausal women [2]; 15 mg daily, week 1
  Weekly frequency of moderate to severe VMS, relative change (% from baseline), Mean: −22%
post-menopausal women [2]; 15 mg daily, week 2
  Weekly frequency of moderate to severe VMS, relative change (% from baseline), Mean: −46%
post-menopausal women [2]; 15 mg daily, week 3
  Weekly frequency of moderate to severe VMS, relative change (% from baseline), Mean: −57%
post-menopausal women [2]; 15 mg daily, week 4
  Weekly frequency of moderate to severe VMS, relative change (% from baseline), Mean: −67%
post-menopausal women [2]; 15 mg daily, week 5
  Weekly frequency of moderate to severe VMS, relative change (% from baseline), Mean: −72%
post-menopausal women [2]; 15 mg daily, week 6
  Weekly frequency of moderate to severe VMS, relative change (% from baseline), Mean: −76%
post-menopausal women [2]; 15 mg daily, week 7
  Weekly frequency of moderate to severe VMS, relative change (% from baseline), Mean: −79%
post-menopausal women [2]; 15 mg daily, week 8
  Weekly frequency of moderate to severe VMS, relative change (% from baseline), Mean: −79%
post-menopausal women [2]; 15 mg daily, week 9
  Weekly frequency of moderate to severe VMS, relative change (% from baseline), Mean: −81%
post-menopausal women [2]; 15 mg daily, week 10
  Weekly frequency of moderate to severe VMS, relative change (% from baseline), Mean: −80%
post-menopausal women [2]; 15 mg daily, week 11
  Weekly frequency of moderate to severe VMS, relative change (% from baseline), Mean: −82%
post-menopausal women [2]; 15 mg daily, week 12
  Weekly frequency of moderate to severe VMS, relative change (% from baseline), Mean: −84%
post-menopausal women [2]; two lowest doses tested (2.5 mg per day and 5 mg per day)
  efficacy on vasomotor parameters: did not show efficacy
post-menopausal women [3]; 2.5 mg daily
  Number of patients leaving the study: 9
post-menopausal women [3]; 5 mg daily
  Number of patients leaving the study: 11
post-menopausal women [3]; 10 mg daily
  Number of patients leaving the study: 15
post-menopausal women [3]; 15 mg daily
  Number of patients leaving the study: 8
